# Details: single subject, forehead sensor, after propofol; FIG. 6B
smiles,measurement,value
CC(C)c1cccc(C(C)C)c1O [propofol],EDA skin conductance response (SCR) after induction of general anesthesia,< 5 micro-Siemens

# Source: patent publication US20250213183A1, “SYSTEM AND METHOD OF MONITORING NOCICEPTION AND ANALGESIA DURING ADMINISTRATION OF GENERAL ANESTHESIA” (The General Hospital Corporation, priority 2022, published 2025)
